Reference: article PMC8307404, “Crystal Structure-Guided Design of Bisubstrate Inhibitors and Photoluminescent Probes for Protein Kinases of the PIM Family” (Molecules, 2021)
Where “and” joins values, the source holds several entries; their conditions need not be identical. Identical values can stand only once. Square brackets hold non-standard residues; d marks the D form. Peptide text beside a SMILES is read from it. * marks the point of attachment. X7 = Nc1nccc(-c2ccc(C(=O)*)s2)n1; Ahx = NCCCCCC(=O)O

Key:
[1] = molecular target: T1, PIM2 (Homo sapiens, UniProt Q9P1W9); assay: Thermal shift assay; assay type: binding; parameters: made in house; settings: 2 μM kinase, 12.5 μM compound; mean ± SEM, N = 2
Experimental: (§1) Thermal shift assay measurements were performed following the previously published protocol [61] using a real-time PCR instrument (Mx3005p RT-PCR, Stratagene; La Jolla, California). […] The measurements were carried out in PCR low-profile microplate wells (ABgene; Portsmouth, NH, USA). The temperature scan was run from 25 to 95 °C at 1 °C/min. GraphPad Prism v. 6.0 (GraphPad Software, Inc.; San Diego, CA, USA) and Microsoft Excel v. 2007 (Microsoft Office; Redmond, WA, USA) were used for data processing and analysis.

[2] = molecular target: T2, PIM3 (Homo sapiens, UniProt Q86V86); assay: Thermal shift assay; assay type: binding; parameters: made in house; settings: 2 μM kinase, 12.5 μM compound; mean ± SEM, N = 2
Experimental: as §1

[3] = molecular target: T3, PIM1 (Homo sapiens, UniProt P11309); assay: Thermal shift assay; assay type: binding; parameters: made in house; settings: 2 μM kinase, 12.5 μM compound; mean ± SEM, N = 2
Experimental: as §1

[4] = molecular target: T3, PIM1; assay: Binding/displacement assay with FA or TGLI readout; parameters: made in house
Experimental: (§2) The affinities of the compounds toward the PIM family PKs were determined in a binding/displacement assay with measurement of fluorescence anisotropy (FA) and time-gated luminescence intensity (TGLI) (Table 2). For the initial assessment of the selectivity of compounds, PKAcα was used as the reference basophilic kinase [10].
(§3) Optical FA measurement modules for 5-TAMRA-labeled compounds (ex. 540(20) nm, em. 590(20) nm and 590(20) nm), for Cy5-labeled compounds (ex. 590(50) nm, em. 675(50) nm and 675(50) nm), and optical TGLI measurement modules for ARC-1451 (ex. 330(60) nm, em. 590(50) nm), for ARC-1188 (ex. 330(60) nm, em. 675(50) nm) were used for assays with PHERAstar microplate reader (BMG Labtech; Ortenberg, Germany). TGLI measurements were performed with a delay time of 50 μs and integration of the signal for 150 μs. In each measurement, emission from 200 flashes of excitation radiation was collected. The measurement solutions (20 µL volumes) were prepared in black 384-well low-binding surface microtiter plates (Corning #4514; Kennebunk, ME, USA) and incubated for 20 min at 30 °C before the measurements. The assay buffer contained HEPES hemisodium salt (pH 7.4, 50 mM), NaCl (150 mM), dithiothreitol (5 mM), bovine serum albumin (0.5 mg/mL), and Tween-20 (0.005%). […] 5.04 (GraphPad Software, Inc.) was used for data analysis with FA [32] or TGLI [33] readouts.

[5] = molecular target: T1, PIM2; assay: Binding/displacement assay with FA or TGLI readout; parameters: made in house; settings: mean ± SEM, N = 2
Experimental: as §2, §3

[6] = molecular target: T2, PIM3; assay: Binding/displacement assay with FA or TGLI readout; parameters: made in house; settings: mean ± SEM, N = 2
Experimental: as §2, §3

[7] = molecular target: T4, PKAcα (Homo sapiens, UniProt P17612); assay: Binding/displacement assay with FA or TGLI readout; settings: TGLI or FA readout; mean ± SEM, N = 2; read-out: KD, nM (PKAcα)
T4 construct: purchased Biaffin GmbH & Co KG (Kassel, Germany)
Experimental: The affinities of the compounds toward the PIM family PKs were determined in a binding/displacement assay with measurement of fluorescence anisotropy (FA) and time-gated luminescence intensity (TGLI) (Table 2). For the initial assessment of the selectivity of compounds, PKAcα was used as the reference basophilic kinase.
Optical FA measurement modules for 5-TAMRA-labeled compounds (ex. 540(20) nm, em. 590(20) nm and 590(20) nm), for Cy5-labeled compounds (ex. 590(50) nm, em. 675(50) nm and 675(50) nm), and optical TGLI measurement modules for ARC-1451 (ex. 330(60) nm, em. 590(50) nm), for ARC-1188 (ex. 330(60) nm, em. 675(50) nm) were used for assays with PHERAstar microplate reader (BMG Labtech; Ortenberg, Germany). TGLI measurements were performed with a delay time of 50 μs and integration of the signal for 150 μs. In each measurement, emission from 200 flashes of excitation radiation was collected. The measurement solutions (20 µL volumes) were prepared in black 384-well low-binding surface microtiter plates (Corning #4514; Kennebunk, ME, USA) and incubated for 20 min at 30 °C before the measurements. The assay buffer contained HEPES hemisodium salt (pH 7.4, 50 mM), NaCl (150 mM), dithiothreitol (5 mM), bovine serum albumin (0.5 mg/mL), and Tween-20 (0.005%). GraphPad Prism v. 5.04 (GraphPad Software, Inc.) was used for data analysis with FA [32] or TGLI [33] readouts. Representative titration curves can be found in Supplementary Figure S7.

[8] = test system: U2OS cells; assay: Cellular uptake of fluorescent probes, live-cell microscopy; assay type: cell-based, human; settings: 1–5 μM, 10–60 min
Experimental: For studies of the general internalization properties of ARCs, the cells were seeded at the density of 12,000–25,000 cells per well onto an Ibidi μ-plate (96-well; Ibidi GmbH, Planegg, Germany). After 24 h incubation in growth medium, the cells were treated for 10 min, 30 min, or 1 h with dilutions of compounds 6, 7, 8, or ARC-2090 (5 μM, 2.5 μM, or 1 μM final concentration) in the phenol red-free DMEM/Ham’s F12 medium supplemented with 2% ccFBS and 2 mM glutamine. Next, cells were washed twice with PBS, and imaging medium (MEMO + Supplement A 1:100) was applied subsequently. Cells were imaged with Cytation 5 wide-field microscope (BioTek; Winooski, VT, USA) using 20× air objective and the following settings: for Cy5, 623 nm LED (intensity: 2) and Cy5 filter cube (685 nm) with 104 ms integration time and detector gain value of 2; for TAMRA, 523 nm LED (intensity: 7) and RFP filter cube (593 nm) with 252 ms integration time and detector gain value of 16; for bright-field, white LED with intensity 6, 186 ms integration time and detector gain value of 15. Four independent experiments were performed.

[9] = molecular target: T5, PIM-1-TagRFP (Homo sapiens, UniProt P11309); assay: Co-localization study, TIRF microscopy; assay type: cell-based; settings: live U2OS cells, 48 h transfection, 1 h incubation with 2.5 or 5 μM probe
T5 construct: expressed in transfected cells; host or cells: U2OS (human osteosarcoma), transient, 48 h, FuGENE HD

[10] = molecular target: endoprotease furin; parameters: method as in PMID 26110264; settings: cited from earlier work
[11] = KD, nM (PIM-1), TGLI or FA readout, mean ± SEM, N = 2

T3 sequence (P11309 whole entry): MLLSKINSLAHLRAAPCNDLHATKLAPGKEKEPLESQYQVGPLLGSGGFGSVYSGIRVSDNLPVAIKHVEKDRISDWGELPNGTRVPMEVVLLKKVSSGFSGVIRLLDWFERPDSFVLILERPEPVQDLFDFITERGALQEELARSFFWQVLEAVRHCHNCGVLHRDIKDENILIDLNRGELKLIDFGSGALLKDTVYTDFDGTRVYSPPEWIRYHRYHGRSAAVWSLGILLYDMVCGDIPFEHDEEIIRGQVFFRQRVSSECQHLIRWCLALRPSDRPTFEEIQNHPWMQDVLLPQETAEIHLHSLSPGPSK
T1 sequence (Q9P1W9 whole entry): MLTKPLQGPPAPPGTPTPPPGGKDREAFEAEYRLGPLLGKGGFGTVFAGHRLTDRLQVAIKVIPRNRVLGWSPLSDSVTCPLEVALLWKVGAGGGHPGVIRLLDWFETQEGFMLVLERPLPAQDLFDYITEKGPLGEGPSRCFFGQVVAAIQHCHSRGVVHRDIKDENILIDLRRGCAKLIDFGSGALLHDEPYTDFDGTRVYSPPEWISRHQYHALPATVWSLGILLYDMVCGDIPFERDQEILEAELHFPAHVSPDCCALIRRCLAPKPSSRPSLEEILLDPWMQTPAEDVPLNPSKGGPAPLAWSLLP
T5 sequence (P11309 whole entry): as the sequence (P11309 whole entry) above

Compound	Kd [4, 11]	Kd [5]	Kd [6]	Kd [7]	other results
BBTP-Hyp-Ahx-(D-Arg)9-D-Lys-NH2 [ARC-3119]	–	–	–	–	∆Tm, °C PIM-2 [1]: 13.9 ± 0.6 °C; ∆Tm, °C PIM-3 [2]: 11.9 ± 0.2 °C; ∆Tm, °C PIM-1 [3]: 13.7 ± 0.4 °C
N=C(N)NCCC[C@@H](NC(=O)CNC(=O)[C@@H](CCCNC(=N)N)NC(=O)[C@@H](CCCNC(=N)N)NC(=O)CCCCCCCNC(=O)[C@@H]1C[C@@H](O)CN1Cc1nc2c(sc3ccc(Br)cc32)c(=O)[nH]1)C(=O)N[C@H](CCCCN)C(N)=O [Compound 5, BBTP-Hyp-Aoc-(D-Arg)2-Gly-D-Arg-D-Lys-NH2]	37.8 ± 9 nM	447 ± 52 nM	30.4 ± 6.5 nM	> 20600 nM	fold lower selectivity toward PIM-1 than compound 2 ([4]; PIM-1 vs PKAcα): over 4 fold
C[C@@H](NC(=O)CCCCCNC(=O)c1ccc(-c2ccnc(N)n2)s1)C(=O)N[C@H](CCCNC(=N)N)C(=O)N[C@H](CCCNC(=N)N)C(=O)N[C@H](CCCNC(=N)N)C(=O)N[C@H](CCCNC(=N)N)C(=O)N[C@H](CCCNC(=N)N)C(=O)N[C@H](CCCNC(=N)N)C(=O)N[C@H](CCCCN)C(=O)NCC(=O)O [ARC-1141, AMTH-Ahx-D-Ala-(D-Arg)6-D-Lys-Gly] ({X7-Ahx}-[dA][dR][dR][dR][dR][dR][dR][dK]G-OH)	–	–	–	–	∆Tm, °C PIM-2 [1]: 5.9 ± 0.6 °C; ∆Tm, °C PIM-3 [2]: 4.9 ± 0.4 °C; ∆Tm, °C PIM-1 [3]: 5.2 ± 0.4 °C
N[C@@H]1CCCN(c2c(/C=C3\SC(=O)NC3=O)cccc2-c2ccccc2)C1 [AZD1208, reference compound]	–	–	–	> 83000 nM	–
CN1C(=CC=CC=CC2=[N+](CCCCCC(=O)NCCCC[C@@H](NC(=O)[C@@H](CCCNC(=N)N)NC(=O)CNC(=O)[C@@H](CCCNC(=N)N)NC(=O)[C@@H](CCCNC(=N)N)NC(=O)CCCCCCCNCc3nc4c(sc5ccc(Br)cc54)c(=O)[nH]3)C(N)=O)c3ccccc3C2(C)C)C(C)(C)c2ccccc21 [Compound 6, BBTP-Aoc-(D-Arg)2-Gly-D-Arg-[D-Lys(Cy5)]-NH2]	1.7 ± 0.4 nM	5.2 ± 0.9 nM	2.6 ± 0.3 nM	> 303 nM	ability to cross the plasma membrane / internalization [8]: efficiently internalized into the cells; Manders' coefficient, co-localization with PIM-1-TagRFP [9]: 0.72 ± 0.06
CN1C(=CC=CC=CC2=[N+](CCCCCC(=O)NCCCC[C@@H](NC(=O)[C@@H](CCCNC(=N)N)NC(=O)CNC(=O)[C@@H](CCCNC(=N)N)NC(=O)[C@@H](CCCNC(=N)N)NC(=O)CCCCc3cn(Cc4nc5c(sc6ccc(Br)cc65)c(=O)[nH]4)nn3)C(N)=O)c3ccccc3C2(C)C)C(C)(C)c2ccccc21 [Compound 7, BBTP-Tap-(D-Arg)2-Gly-D-Arg-[D-Lys(Cy5)]-NH2]	21.9 ± 4 nM	28.2 ± 6.7 nM	8.3 ± 1 nM	> 1080 nM	ability to cross the plasma membrane / internalization [8]: efficiently internalized into the cells; Manders' coefficient, co-localization with PIM-1-TagRFP [9]: 0.43 ± 0.16
N=C(N)NCCC[C@@H](N)C(=O)N[C@H](CCCNC(=N)N)C(=O)NCC(=O)N[C@H](CCCNC(=N)N)C(=O)N[C@H](CCCCN)C(N)=O [PIM peptide, (D-Arg)2-Gly-D-Arg-D-Lys-NH2]	> 11500 nM	> 46000 nM	> 16400 nM	> 89000 nM	Kd ([4]; KD toward PIM-1, as worded in text): > 10000 nM
CN1CCC(CNc2ccc3ncc(-c4cccc(OC(F)(F)F)c4)n3n2)CC1 [SGI-1776, reference compound]	–	–	–	–	∆Tm, °C PIM-2 [1]: 8.1 ± 0.6 °C; ∆Tm, °C PIM-3 [2]: 8.2 ± 0.3 °C; ∆Tm, °C PIM-1 [3]: 9.5 °C and 9.5 ± 0.4 °C
(D-Arg)9-NH2	–	–	–	–	Kd [10]: 1.3 nM
(D-Arg)6-NH2	–	–	–	–	Kd [10]: 106 nM
N=C(N)NCCC[C@@H](NC(=O)CNC(=O)[C@@H](CCCNC(=N)N)NC(=O)[C@@H](CCCNC(=N)N)NC(=O)CCCCc1cn(Cc2nc3c(sc4ccc(Br)cc43)c(=O)[nH]2)nn1)C(=O)N[C@H](CCCCN)C(N)=O [Compound 4, BBTP-Tap-(D-Arg)2-Gly-D-Arg-D-Lys-NH2]	1.8 ± 0.3 nM	20 ± 4 nM	6.6 ± 1.4 nM	> 18200 nM	fold higher selectivity as compared to compound 3 ([4]; PIM-1 vs PKAcα): over 5 fold
